Assays:
[1] = target: T1, Urease (Type III from jack beans) (Canavalia ensiformis, UniProt P07374); experiment: Ammonia odor detection on paper towel sheets treated with urea and urease solution; type: biochemical; conditions: paper towel sheet, 15 drops CuHEDTA Test Solution (urea 2M/tris + Cu/HEDTA complex solution 125 mM) + 2 drops urease solution; after 30 minutes at room temperature; smell
T1 construct: purchased Sigma U-1500
Experimental: In such a test, conventional paper towel sheets are treated with both a urea solution and a urease solution. One such sheet serves as a reference sheet; another such sheet is treated with a urease solution which also contains a complex of copper chelated with N-(2-hydroxyethyl)ethylenediamine triacetic acid. After 30 minutes at room temperature, the sheets are evaluated for detectable ammonia order.
Dissolve 2.42 g of trizma-base in about 80 mL H2O deionized, adjust the pH to 7.5 with HCL 1M, bring to 100 mL with H2O deionized.
Dissolve 6 g of Urea in 50 mL of this buffer 0.2M, pH 7.5
Dissolve 2.13 g of CuCl in 50 mL of H2O deionized.
Dissolve 2.15 g of HEDTA in 25 mL of H2O deionized
Cu/HEDTA complex solution (125 mM)
Mix 25 ml of CuCl2 solution (250 mM) with 25 mL HEDTA solution (250 mM)at adjusted with NaOH to pH around 7
Urease solution (10 mg/mL)
Weigh 0.020 g of urease and add 3 mL of tris buffer pH 7.5, 0.2M. This solution is stable for about 1 week provided it is stored at 4° C. in a refrigerator.
10 mL urea 2M/tris+500 mL of H2O deionized buffer.
10 mL Urea 2M/tris+500 mL Cu/TED complex solution buffer (125 mM)
Half of a white BOUNTY™® towel sheet is put in each of two Petri dishes. Into one dish, 15 drops of the reference solution are poured evenly so that the center of the towel sheet is evenly wet. […]

urine malodor = conditions: 5 mMol/liter solution, 250 ml sprayed once per day for 11 days over 4 m^2 (105 mg/m^2)
Experimental: A liquid product for treating hard surfaces is prepared and tested by spraying the product on walls, floors and other surfaces surrounding the urinals in a public men's restroom. Product preparation, use and test results are as follows:
A 5 mMol/liter solution of CuHEDTA is prepared from:
1721 mg of HEDTA (trisodium salt hydrate, MW=344.21);
1250 mg of CuSO4 (pentahydrate, MW=250);
1000 ml of deionized water.
Using a spray-gun, 250 ml of this solution is sprayed once per day for 11 days over a 4 m^2 area surrounding the urinals in a public men's restroom.

T1 sequence (P07374 whole entry, looked up): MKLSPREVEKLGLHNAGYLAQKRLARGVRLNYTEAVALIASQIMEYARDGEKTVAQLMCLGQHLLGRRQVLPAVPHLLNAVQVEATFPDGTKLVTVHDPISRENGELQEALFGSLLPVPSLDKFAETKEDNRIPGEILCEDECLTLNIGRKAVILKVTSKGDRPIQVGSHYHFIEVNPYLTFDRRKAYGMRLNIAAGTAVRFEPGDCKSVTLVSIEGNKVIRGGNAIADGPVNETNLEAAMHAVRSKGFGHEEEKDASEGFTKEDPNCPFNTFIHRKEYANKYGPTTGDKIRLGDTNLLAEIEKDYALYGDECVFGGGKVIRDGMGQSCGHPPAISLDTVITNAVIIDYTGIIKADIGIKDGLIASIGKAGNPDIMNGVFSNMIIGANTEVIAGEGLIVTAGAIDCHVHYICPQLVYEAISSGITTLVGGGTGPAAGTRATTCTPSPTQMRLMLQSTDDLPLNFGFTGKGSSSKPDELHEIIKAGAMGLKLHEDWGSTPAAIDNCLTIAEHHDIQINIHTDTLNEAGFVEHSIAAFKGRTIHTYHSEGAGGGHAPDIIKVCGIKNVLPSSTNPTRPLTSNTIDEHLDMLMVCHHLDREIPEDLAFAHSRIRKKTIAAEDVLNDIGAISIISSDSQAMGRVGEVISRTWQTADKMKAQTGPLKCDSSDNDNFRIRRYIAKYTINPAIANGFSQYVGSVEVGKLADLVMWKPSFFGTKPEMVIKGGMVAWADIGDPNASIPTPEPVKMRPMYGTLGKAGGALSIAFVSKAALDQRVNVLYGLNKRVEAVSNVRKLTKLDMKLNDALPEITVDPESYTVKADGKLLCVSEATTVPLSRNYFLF

Question: Which detectable ammonia odor [1] does the source give for `O=C([O-])CN(CCN(CCO)CC(=O)O)CC(=O)[O-].[Cu+2]` [CuHEDTA, copper salt of N-hydroxyethyl-ethylenediamine-triacetic acid] here?
Answer: Its detectable ammonia odor is “No ammonia odor is detectable”.

Question: What about the “urine malodor control in the men's restroom” value (urine malodor) of the same compound?
Answer: The value was “effectively controlled for the full 11 day period”.

— US20030220211A1, “Methods, compositions, and articles for control of malodor produced by urea-containing body fluids” (The Procter & Gamble Company, priority 2000, published 2003)
